Source: patent publication US11779559B2, “Compositions for treating fungal and bacterial biofilms and methods of using the same” (priority 2017, dated 2023)

Assays:
C. albicans = experiment: Sustained inhibition biofilm assay, fungal; assay type: cell-based, Candida albicans; conditions: sustained inhibition assay; C. albicans; 1% amino acid (unless specifically noted); p≤0.001
Method: Two types of biofilm assays were performed: a sustained inhibition assay and a disruption assay. The sustained inhibition assay assesses the compound's ability to prevent biofilm development throughout all stages of biofilm formation, while the disruption assay assesses the compound's ability to break up an existing mature biofilm. These assays are described in detail in the following article: Lohse, M. B., Gulati, M., Valle Arevalo, A., Fishburn, A., Johnson, A. D., and Nobile, C. […] Antimicrobial Agents and Chemotherapy 61: e02749-16.
(§1) All bacterial biofilm solutions were prepared in Trypic Soy Broth (TSB), supplemented with 1% glucose (henceforth referred to as TSB-G). All subsequent procedures were performed in a manner that maintained sterility. A solution of each amino acid to be tested was prepared in weight to volume concentrations ranging from 0.1-5.0%. Amino acids were also tested in combinations. Compound solutions were homogenized with gentle agitation in the dark (4° C., 24 hours) before use.
Fungal strains were streaked on Yeast Peptone Dextrose (YPD) agar plates and incubated at 30° C. for 48 hours. A single colony from each strain to be tested was inoculated into YPD broth and grown for 12 hours, at 30° C., shaking at 225 rpm. […] The cells were allowed to adhere to the plate for 90 minutes at 37° C. with shaking (350 rpm). […] The plate was further incubated for 24 hours at 37° C. with shaking (350 rpm). Media was carefully aspirated and the biofilm was measured by optical density at 600 nm. […] The cells were allowed to adhere to the plate for 90 minutes at 37° C. with shaking (350 rpm). […] The plate was further incubated for 24 hours at 37° C. with shaking (350 rpm). […] The plate was further incubated for 24 hours at 37° C. with shaking (350 rpm). Media was carefully aspirated and the biofilm was measured by optical density at 600 nm.

[1] = test system: bacteria (S. aureus) biofilm and fungal (C. albicans) biofilm; experiment: Sustained inhibition biofilm assay, bacterial and fungal taken together; assay type: cell-based; conditions: sustained inhibition assay; bacterial and fungal biofilm; 1% amino acid (unless specifically noted); p≤0.001
Method: (§2) Two types of biofilm assays were performed: a sustained inhibition assay and a disruption assay. The sustained inhibition assay assesses the compound's ability to prevent biofilm development throughout all stages of biofilm formation, while the disruption assay assesses the compound's ability to break up an existing mature biofilm. These assays are described in detail in the following article: Lohse, M. B., Gulati, M., Valle Arevalo, A., Fishburn, A., Johnson, A. D., and Nobile, C. J. (2017) Assessment and optimizations of Candida albicans in vitro biofilm assays. Antimicrobial Agents and Chemotherapy 61: e02749-16.
as §1, with “For fungal biofilm assays, all solutions were prepared in RPMI 1640 medium. All bacterial” for “All bacterial”
(§3) Fungal strains were streaked on Yeast Peptone Dextrose (YPD) agar plates and incubated at 30° C. for 48 hours. A single colony from each strain to be tested was inoculated into YPD broth and grown for 12 hours, at 30° C., shaking at 225 rpm. For the fungal biofilm inhibition assay, 1 μl of saturated overnight cell culture was added to either 80 μL of RPMI-1640 or RPMI-1640 supplemented with the amino acid compound solution to be tested, in a 384-well plate. […] Media was carefully aspirated and the biofilm was measured by optical density at 600 nm. […] Media was carefully aspirated and the biofilm was measured by optical density at 600 nm. […]
(§4) Bacterial strains were streaked on Blood Agar plates (5% sheep blood in Tryptic Soy Agar) and incubated at 37° C. for 24 hours. […] Media was carefully aspirated and the biofilm was measured by optical density at 600 nm. […]

[2] = test system: bacteria (S. aureus) biofilm and fungal (C. albicans) biofilm; experiment: Disruption biofilm assay, bacterial and fungal taken together; assay type: cell-based; conditions: disruption assay; bacterial and fungal biofilm; 1% amino acid (unless specifically noted); p≤0.001
Method: as §2
as §1, with “For fungal biofilm assays, all solutions were prepared in RPMI 1640 medium. All bacterial” for “All bacterial”
as §3, §4

Compound: N[C@@H](CC(=O)O)C(=O)O [Aspartic Acid, L-aspartic acid]
- Reduce F Biofilm (C. albicans): ●● (two dots [ie. ••] signifies major effect (greater than about 30% change))
- Reduce Both [1]: ●● (two dots [ie. ••] signifies major effect (greater than about 30% change))
- Reduce Both [2]: ●● (two dots [ie. ••] signifies major effect (greater than about 30% change))
